The subject of the assay is EHEC binding to Caco2 cells. In words: inhibition of pathogen (EHEC) binding to human colon cancer cells. In kind it is cell-based. Conditions: EHEC (2×10^8 cfu/ml) on Caco2 cells; test solution 5-10 mg/ml hydrolysed fibre; 1 h at 37° C.; cfu versus blank. How it is done: Different oligosaccharides obtained by hydrolysis of fibres were used to measure inhibition of pathogen binding to human colon cancer cells. Cells for the binding experiment are grown under standard conditions. The growth medium is removed from the cells and 0.2 ml of minimal essential medium, 0.4 ml EHEC solution (2×10^8 cfu/ml) and 0.4 ml of test solution (5-10 mg/ml hydrolysed fibre) is added. Appropriate blanks are used as controls. Cells are incubated for an hour at 37° C., after which the medium is removed. The cells are washed five times with PBS buffer, lysed, homogenised, diluted and plated to count colony-forming units, following standard procedures. Comparison of the amount of cfu's found with the blank and with one of the fractions, the inhibiting power of the fraction can be calculated as percentage reduction in binding. The table below summarises results of binding reduction. […] All other oligosaccharides (non arabinose-containing) have lower than 60% binding reduction activity.

Regarding `OC[C@H]1O[C@@H](O[C@H]2[C@H](O)[C@@H](O)C(O)O[C@@H]2CO)[C@H](O)[C@@H](O)[C@H]1O` (stereo partly shown) [lactose], the “% binding reduction” value was 28%.
